Structures can show the parent of a compound that is named as a salt. Where a SMILES comes first, the peptide text is derived from it. [ ]: non-standard residue; d: D form. The star is where a group is joined. X4 = O=C(COc1c(-c2csc(N3CCOCC3)n2)ccc(F)c1F)NCCCCN*; X3 = O=C(NCCCCCCN*)c1cccc2sc(N3CCOCC3)nc12; Dip = N[C@H](C(=O)O)C(c1ccccc1)c1ccccc1; Chg = N[C@H](C(=O)O)C1CCCCC1; NMeA = CN[C@@H](C)C(=O)O

The subject of the first assay is 22Rv1. In words: 22Rv1 cell proliferation assay (Experimental Example 1, cell count). The class given is cell-based. Particulars: Homo sapiens, 22Rv1, read-out: 22Rv1 cell count decrease at 10 μM for 48 hours. The protocol:
The human prostate cancer cell line, 22Rv1 has been reported to express a high level of AR-V7. […] Standard culture media was RPMI-1640 supplemented with 10% fetal bovine serum. The test compound initially was dissolved in DMSO at 50 mM. This stock solution was then diluted as needed for the indicated concentrations. […]
In the Table: (+)—the cell count decreased between 0 and 20%; (++)—the cell count decreased […]; (+++)—the cell count decreased by more than 50%.
Regarding `CN[C@@H](C)C(=O)N[C@H](C(=O)N1CCC[C@H]1C(=O)N[C@H](C(=O)NCCCCNC(=O)COc1c(-c2csc(N3CCOCC3)n2)ccc(F)c1F)C(c1ccccc1)c1ccccc1)C1CCCCC1` [Example 25, (S)-1-((S)-2-cyclohexyl-2-((S)-2-(methylamino)propanamido)acetyl)-N-((S)-1-((4-(2-(2,3-difluoro-6-(2-morpholinothiazol-4-yl)phenoxy)acetamido)butyl)amino)-1-oxo-3,3-diphenylpropan-2-yl)pyrrolidine-2-carboxamide] (H-[NMeA][Chg]P[Dip]-X4), the inhibition at 10 µM is above 50%.
On the same count and under the same terms, for `CN[C@@H](C)C(=O)N[C@H](C(=O)N1CCC[C@H]1C(=O)N[C@H](C(=O)NCCCCCCNC(=O)c1cccc2sc(N3CCOCC3)nc12)C(c1ccccc1)c1ccccc1)C1CCCCC1` [Example 31, N-(6-((S)-2-((S)-1-((S)-2-cyclohexyl-2-((S)-2-(methylamino)propanamido)acetyl)pyrrolidine-2-carboxamido)-3,3-diphenylpropanamido)hexyl)-2-morpholinobenzo[d]thiazole-4-carboxamide] (H-[NMeA][Chg]P[Dip]-X3) the value was above 50%.

Staying with this assay, now noted: Homo sapiens, 22Rv1, read-out: 22Rv1 cell count decrease at 10 μM for 48 hours; 10 μM (method: four days); read-out: 22Rv1 cell count decrease at 10 μM.
On to `Cc1ncsc1-c1ccc([C@H](C)NC(=O)[C@@H]2C[C@@H](O)CN2C(=O)[C@@H](NC(=O)COCCOCCNC(=O)COc2c(-c3csc(N4CCOCC4)n3)ccc(F)c2F)C(C)(C)C)cc1` [Example 20, (2S,4R)-1-((S)-2-(tert-butyl)-14-(2,3-difluoro-6-(2-morpholinothiazol-4-yl)phenoxy)-4,13-dioxo-6,9-dioxa-3,12-diazatetradecanoyl)-4-hydroxy-N-((S)-1-(4-(4-methylthiazol-5-yl)phenyl)ethyl)pyrrolidine-2-carboxamide], for which the inhibition at 10 µM is below 50%.
Regarding `Cc1ncsc1-c1ccc([C@H](C)NC(=O)[C@@H]2C[C@@H](O)CN2C(=O)[C@@H](NC(=O)CCCCCCCOc2c(-c3csc(N4CCOCC4)n3)ccc(F)c2F)C(C)(C)C)cc1` [Example 21, (2S,4R)-1-((S)-2-(8-(2,3-difluoro-6-(2-morpholinothiazol-4-yl)phenoxy)octanamido)-3,3-dimethylbutanoyl)-4-hydroxy-N-((S)-1-(4-(4-methylthiazol-5-yl)phenyl)ethyl)pyrrolidine-2-carboxamide], the inhibition at 10 µM was below 50%.
Regarding `Cc1ncsc1-c1ccc([C@H](CC(=O)NCCCCNC(=O)COc2c(-c3csc(N4CCOCC4)n3)ccc(F)c2F)NC(=O)[C@@H]2C[C@@H](O)CN2C(=O)[C@@H](NC(=O)C2(F)CC2)C(C)(C)C)cc1` [Example 22, (2S,4R)-N-((S)-3-((4-(2-(2,3-difluoro-6-(2-morpholinothiazol-4-yl)phenoxy)acetamido)butyl)amino)-1-(4-(4-methylthiazol-5-yl)phenyl)-3-oxopropyl)-1-((S)-2-(1-fluorocyclopropane-1-carboxamido)-3,3-dimethylbutanoyl)-4-hydroxypyrrolidine-2-carboxamide], the inhibition at 10 µM lay in the range of 0 to 20%.
As for `Cc1ncsc1-c1ccc([C@H](CC(=O)NCCCCCCNC(=O)COc2c(-c3csc(N4CCOCC4)n3)ccc(F)c2F)NC(=O)[C@@H]2C[C@@H](O)CN2C(=O)[C@@H](NC(=O)C2(F)CC2)C(C)(C)C)cc1` [Example 23, (2S,4R)-N-((S)-3-((6-(2-(2,3-difluoro-6-(2-morpholinothiazol-4-yl)phenoxy)acetamido)hexyl)amino)-1-(4-(4-methylthiazol-5-yl)phenyl)-3-oxopropyl)-1-((S)-2-(1-fluorocyclopropane-1-carboxamido)-3,3-dimethylbutanoyl)-4-hydroxypyrrolidine-2-carboxamide], the inhibition at 10 µM was in the range of 0 to 20%.
Same read-out and setting: for `COc1cc(C(=O)NCCOCCOCCOc2c(-c3csc(N4CCOCC4)n3)ccc(F)c2F)ccc1NC(=O)[C@@H]1N[C@@H](CC(C)(C)C)[C@](C#N)(c2ccc(Cl)cc2F)[C@H]1c1cccc(Cl)c1F` [Example 27, (2R,3S,4R,5S)-3-(3-chloro-2-fluorophenyl)-4-(4-chloro-2-fluorophenyl)-4-cyano-N-(4-((2-(2-(2-(2,3-difluoro-6-(2-morpholinothiazol-4-yl)phenoxy)ethoxy)ethoxy)ethyl)carbamoyl)-2-methoxyphenyl)-5-neopentylpyrrolidine-2-carboxamide] the value was above 50%.
Still for that read-out and setting: next, `COc1cc(C(=O)NCCCCNC(=O)COc2c(-c3csc(N4CCOCC4)n3)ccc(F)c2F)ccc1NC(=O)[C@@H]1N[C@@H](CC(C)(C)C)[C@](C#N)(c2ccc(Cl)cc2F)[C@H]1c1cccc(Cl)c1F` [Example 28, (2R,3S,4R,5S)-3-(3-chloro-2-fluorophenyl)-4-(4-chloro-2-fluorophenyl)-4-cyano-N-(4-((4-(2-(2,3-difluoro-6-(2-morpholinothiazol-4-yl)phenoxy)acetamido)butyl)carbamoyl)-2-methoxyphenyl)-5-neopentylpyrrolidine-2-carboxamide]: above 50%.
The same measure, in the same setting: next, `COc1cc(C(=O)NCCCCCCNC(=O)COc2c(-c3csc(N4CCOCC4)n3)ccc(F)c2F)ccc1NC(=O)[C@@H]1N[C@@H](CC(C)(C)C)[C@](C#N)(c2ccc(Cl)cc2F)[C@H]1c1cccc(Cl)c1F` [Example 29, (2R,3S,4R,5S)-3-(3-chloro-2-fluorophenyl)-4-(4-chloro-2-fluorophenyl)-4-cyano-N-(4-((6-(2-(2,3-difluoro-6-(2-morpholinothiazol-4-yl)phenoxy)acetamido)hexyl)carbamoyl)-2-methoxyphenyl)-5-neopentylpyrrolidine-2-carboxamide]: below 50%; `Cc1ncsc1-c1ccc([C@H](C)NC(=O)[C@@H]2C[C@@H](O)CN2C(=O)[C@@H](NC(=O)CCCCNC(=O)c2cccc3sc(N4CCOCC4)nc23)C(C)(C)C)cc1` [Example 30, N-(5-(((S)-1-((2S,4R)-4-hydroxy-2-(((S)-1-(4-(4-methylthiazol-5-yl)phenyl)ethyl)carbamoyl)pyrrolidin-1-yl)-3,3-dimethyl-1-oxobutan-2-yl)amino)-5-oxopentyl)-2-morpholinobenzo[d]thiazole-4-carboxamide]: below 50%.
For `O=C1CCC(N2C(=O)c3cccc(NCCCCCCNC(=O)c4nc(Br)n(-c5csc(N6CCOCC6)n5)c4Br)c3C2=O)C(=O)N1` (stereo not drawn) [Example 33, 2,5-dibromo-N-(6-((2-(2,6-dioxopiperidin-3-yl)-1,3-dioxoisoindolin-4-yl)amino)hexyl)-1-(2-morpholinothiazol-4-yl)-1H-imidazole-4-carboxamide], the inhibition at 10 µM was 0 to 20%.
On to `CN[C@@H](C)C(=O)N[C@H](C(=O)N1Cc2cc(OCCOCCOCCOc3c(-c4csc(N5CCOCC5)n4)ccc(F)c3F)ccc2C[C@H]1C(=O)N[C@@H]1CCCc2ccccc21)C(C)(C)C` [Example 36, (S)-7-(2-(2-(2-(2,3-difluoro-6-(2-morpholinothiazol-4-yl)phenoxy)ethoxy)ethoxy)ethoxy)-2-((S)-3,3-dimethyl-2-((S)-2-(methylamino)propanamido)butanoyl)-N-((R)-1,2,3,4-tetrahydronaphthalen-1-yl)-1,2,3,4-tetrahydroisoquinoline-3-carboxamide dihydrochloride], for which the inhibition at 10 µM is above 50%.

For the origin of these results see patent US20230132823A1, “BI-FUNCTIONAL COMPOUNDS AND METHODS FOR TARGETED UBIQUITINATION OF ANDROGEN RECEPTOR” (MONTELINO THERAPEUTICS, INC., priority 2020, published 2023).
